Test results: PubChem BioAssay (NCI)
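Method: 48-hour compound exposure of cells in 96-well plates, five concentrations, linear interpolation of endpoints. At the GI50, growth is halved. The concentration for full growth arrest is given as TGI.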

Legend:
Assay in all cases: growth of human tumour cells (NCI), 48 h
[1] = tested on: NCI/ADR-RES ovarian
[2] = tested on: SNB-75 CNS
[3] = tested on: MCF7 breast
[4] = tested on: HCT-116 colon
[5] = tested on: RXF 393 renal
[6] = tested on: BT-549 breast
[7] = tested on: T-47D breast
[8] = tested on: TK-10 renal
[9] = tested on: M14 melanoma
[10] = tested on: HS 578T breast

| Compound | TGI [1] | TGI [2] | TGI [3] | TGI [4] | TGI [5] | TGI [6] | TGI [7] | TGI [8] | TGI [9] | TGI [10] | GI50 [1] | GI50 [6] | GI50 [7] | GI50 [2] | GI50 [3] | GI50 [8] | GI50 [9] | GI50 [10] | GI50 [4] | GI50 [5] |
| --- | --- | --- | --- | --- | --- | --- | --- | --- | --- | --- | --- | --- | --- | --- | --- | --- | --- | --- | --- | --- |
| NC(=S)N/N=C/c1ccc(OC(=O)COc2ccccc2Cl)cn1 | 59.3 µM | > 100 µM | > 100 µM | > 90 µM | > 100 µM |  |  |  |  |  |  |  |  |  |  |  |  |  |  |  |
| CCOC(=O)Oc1ccc2c(c1)c(=O)c1c(NCCCN(CC)CC)ccc3nnn2c31 | 28.1 µM |  | 15.7 µM | 15.8 µM | 19.8 µM | 32 µM | 31.1 µM | 17.5 µM | 25.4 µM | 40.7 µM |  |  |  |  |  |  |  |  |  |  |
| C/C([O-])=C(/c1nc(-c2ccc([N+](=O)[O-])o2)no1)[n+]1cc(C)ccc1C | > 100 µM | > 49.9 µM | 16.2 µM | 18.5 µM | 43.2 µM |  |  |  |  |  |  |  |  |  |  |  |  |  |  |  |
| Cc1nc(N(CCO)CCO)c2sc(=S)n(-c3ccccc3)c2n1 |  | > 100 µM |  | > 100 µM |  |  |  | > 100 µM |  |  |  |  |  |  |  |  |  |  |  |  |
| COc1cc(Cc2ccc3c(c2C#N)N(C)c2ccccc2S3)cc(OC)c1OC |  |  |  | > 100 µM | > 100 µM |  |  | > 100 µM | > 100 µM |  |  |  |  |  |  |  |  |  |  |  |
| C/C(=N\NC(=S)Nc1ccc(Cl)cc1)c1nc2ncccc2[nH]1 | 53.4 µM | 25.4 µM | 11.2 µM | 13 µM |  | 11.1 µM | 20.9 µM | 5.12 µM | 6.54 µM | 71.8 µM |  |  |  |  |  |  |  |  |  |  |
| COc1cc(C2S/C(=C/c3ccccc3)C(=O)N2c2ccccc2Cl)cc(OC)c1OC (stereo unspecified) | 94.7 µM | 29.6 µM | > 100 µM | 62.6 µM | 45.1 µM | > 100 µM | 32.1 µM | > 100 µM | 60.5 µM | 47.5 µM |  |  |  |  |  |  |  |  |  |  |
| Cc1ccc(S(=O)(=O)Nc2cc(Sc3ccccc3)c(O)c3ccccc23)cc1 | 9.31 µM | 25.5 µM | 4.79 µM | 11.5 µM | 9.38 µM | 24.2 µM | 5.99 µM | 31.7 µM | 19.9 µM | 10.8 µM | 3 µM | 11.9 µM | 2.25 µM | 12.9 µM | 1.95 µM | 17.5 µM | 6.49 µM | 3.27 µM | 3.13 µM | 3.11 µM |
| COC(=O)C1=C(O)C(C(=O)OC)[C@@]2(O)[C@@H](C(=O)OC)CC[C@@H]1[C@@H]2C(=O)OC (stereo partly specified) |  | 64.8 µM | > 100 µM | > 100 µM | 61.2 µM | > 100 µM | > 100 µM | 93.4 µM | 62.6 µM | 33.9 µM |  |  |  |  |  |  |  |  |  |  |
| Cc1ncc(CO)c(C=NCCCCCCN=Cc2c(CO)cnc(C)c2O)c1O | > 100 µM | > 100 µM | > 100 µM | > 100 µM | > 100 µM | > 100 µM | > 100 µM | > 100 µM | > 100 µM | > 100 µM |  |  |  |  |  |  |  |  |  |  |
| CCOC(=O)C(=O)Nc1cccc(C)c1C |  | > 100 µM |  | > 100 µM |  |  |  | > 100 µM | > 100 µM |  |  |  |  |  |  |  |  |  |  |  |
| O=c1oc2c(ccc3c(O)cccc32)c2c1CCCC2 | > 100 µM | 19.9 µM | > 100 µM | > 100 µM | 39.8 µM | 73.6 µM | > 100 µM | > 100 µM | > 100 µM | > 100 µM |  |  |  |  |  |  |  |  |  |  |
| CCOC(=O)/C(=N/Nc1ccc(Cl)cc1)N1C(=S)C=C(C)NN(C)C1=S | > 100 µM | 69.3 µM | > 100 µM | > 100 µM | 41.1 µM |  | 98.3 µM | > 100 µM | > 100 µM | > 100 µM |  |  |  |  |  |  |  |  |  |  |
| O=C(O)CN=c1c2ccccc2n(O)c2ccccc12 |  | > 100 µM |  | > 100 µM |  |  |  | > 100 µM | > 100 µM |  |  |  |  |  |  |  |  |  |  |  |
